Measured values as given in US20220330549A1, “USE OF N-BENZYLBENZAMIDE-BASED COMPOUND AS HERBICIDE” (Northwest A&F University, priority 2020, published 2022).

Assays:
Type in all cases: in vivo
Humulus scandens [1] = assay: Herbicidal activity test for indoor pre-emergence soil treatment; conditions: 150 g a.i./ha, visual inspection 21 days after treatment
Procedure: (§1) The herbicidal activity test for indoor pre-emergence soil treatment was performed with some of the N-benzylbenzamide-based compounds of general formula I or II with reference to the method of NY/T 1155.3-2006. Neutral sandy loam soil having an organic content of ≤2% was added to fill ⅘ of the pot, and the soil was completely moistened by infiltrating irrigation from the bottom of the pot. The seeds of the test weed were evenly spread on the soil surface, and then covered by 0.5 cm to 2.0 cm of soil depending on the seed size. Representative compounds in the examples were used to prepare emulsifiable concentrates (10%), and spray treatments to the soil were performed 24 hours after the sowing with the test agents diluted with water, at a spraying dosage of 150 g(a.i.)/ha. Then, the results were investigated by visual inspection 21 days after the treatments. The herbicidal activity of the agent was evaluated on a scale of 1-9 levels according to the symptoms and severity of damage to the test weeds.
(§2) Level 2: equivalent to 0 to 2.5% of the weed in the blank control area;
(§3) Level 3: equivalent to 2.6 to 5% of the weed in the blank control area;
(§4) Level 4: equivalent to 5.1 to 10% of the weed in the blank control area;
(§5) Level 5: equivalent to 10.1 to 15% of the weed in the blank control area;
(§6) Level 6: equivalent to 15.1 to 25% of the weed in the blank control area;
(§7) Level 7: equivalent to 25.1 to 35% of the weed in the blank control area;
(§8) Level 8: equivalent to 35.1 to 67.5% of the weed in the blank control area; and
(§9) Level 9: equivalent to 67.6 to 100% of the weed in the blank control area.

Amaranthus retroflexus [2] = assay: Field test for weed control in a corn field; conditions: 150 g a.i./ha, 30 days after treatment
Procedure: (§10) The weed control efficacy field test was performed in a corn field with some of the N-benzylbenzamide-based compounds of general formula I or II with reference to the method of GB/T 17980.42-2000. […] Spray treatments were performed in the stage where 2 leaves to 5 leaves were grown for the corns after the sowing. Representative compounds in the examples were used to prepare emulsifiable concentrates (10%), and spray treatments were performed with the concentrates in water at a dosage of 150 g(a.i.)/ha, and repeated 4 times for each treatment, and the area was 20 m^2. Oil dispersion with 25% of mesotrione was used as a control agent and applied at a dosage of 150 g(a.i.)/h. […] The herbicidal activities of the agents were evaluated on a scale of 1-9 levels according to the symptoms and severity of damage to the test weeds.
as §2, §3, §4, §5, §6, §7, §8, §9

Convolvulus arvensis = assay: Field test for weed control in a corn field; conditions: 150 g a.i./ha, after treatment
Procedure: as §10, §2, §3, §4, §5, §6, §7, §8, §9

Solanum nigrum = assay: Field test for weed control in a corn field; conditions: 150 g a.i./ha, 30 days after treatment
Procedure: as §10, §2, §3, §4, §5, §6, §7, §8, §9

Acalypha australis = assay: Field test for weed control in a corn field; conditions: 150 g a.i./ha, after treatment
Procedure: as §10, §2, §3, §4, §5, §6, §7, §8, §9

goosegrass = assay: Field test for weed control in a corn field; conditions: 150 g a.i./ha, after treatment
Procedure: as §10, §2, §3, §4, §5, §6, §7, §8, §9

Barnyard grass [3] = assay: Field test for weed control in a corn field; conditions: 150 g a.i./ha, 30 days after treatment
Procedure: as §10, §2, §3, §4, §5, §6, §7, §8, §9

Digitaria sanguinalis [4] = assay: Field test for weed control in a corn field; conditions: 150 g a.i./ha, after treatment
Procedure: as §10, §2, §3, §4, §5, §6, §7, §8, §9

Portulaca oleracea = assay: Field test for weed control in a corn field; conditions: 150 g a.i./ha, after treatment
Procedure: as §10, §2, §3, §4, §5, §6, §7, §8, §9

Chenopodium album = assay: Field test for weed control in a corn field; conditions: 150 g a.i./ha, after treatment
Procedure: as §10, §2, §3, §4, §5, §6, §7, §8, §9

nutgrass flatsedge = assay: Field test for weed control in a corn field; conditions: 150 g a.i./ha, after treatment
Procedure: as §10, §2, §3, §4, §5, §6, §7, §8, §9

green bristlegrass [5] = assay: Field test for weed control in a corn field; conditions: 150 g a.i./ha, after treatment
Procedure: as §10, §2, §3, §4, §5, §6, §7, §8, §9

Piemarker [6] = assay: Herbicidal activity test for indoor pre-emergence soil treatment; parameters: key: level 1-9; higher = more weed remaining vs blank control; conditions: 150 g a.i./ha, visual inspection 21 days after treatment
Procedure: as §1, §2, §3, §4, §5, §6, §7, §8, §9

Barnyard grass [7] = assay: as above; parameters: key: level 1-9; higher = more weed remaining vs blank control; conditions: 150 g a.i./ha, visual inspection 21 days after treatment
Procedure: as §1, §2, §3, §4, §5, §6, §7, §8, §9

green bristlegrass [8] = assay: as above; parameters: key: level 1-9; higher = more weed remaining vs blank control; conditions: 150 g a.i./ha, visual inspection 21 days after treatment
Procedure: as §1, §2, §3, §4, §5, §6, §7, §8, §9

Amaranthus retroflexus [9] = assay: Herbicidal activity test for indoor post-emergence spraying on stems and leaves; parameters: key: grade level by weed remaining vs blank control, e.g. 5 = 10.1-15%; conditions: 150 g a.i./ha, visual inspection 21 days after treatment
Procedure: (§11) The post-emergence herbicidal activity test was performed with some of the N-benzylbenzamide-based compounds of general formula I or II with reference to the method of NY/T 1155.4-2006. […] After the sowing, the weed was moved to a greenhouse for regular cultivation. […] Then, the results were investigated by visual inspection 21 days after the treatments. […] Level 5: equivalent to 10.1 to 15% of the weed in the blank control area; Level 6: equivalent to 15.1 to 25% of the weed in the blank control area; Level 7: equivalent to 25.1 to 35% of the weed in the blank control area; Level 8: equivalent to 35.1 to 67.5% of the weed in the blank control area; and […]

Piemarker [10] = assay: as above; parameters: key: grade level by weed remaining vs blank control, e.g. 5 = 10.1-15%; conditions: 150 g a.i./ha, visual inspection 21 days after treatment
Procedure: as §11

Barnyard grass [11] = assay: as above; parameters: key: grade level by weed remaining vs blank control, e.g. 5 = 10.1-15%; conditions: 150 g a.i./ha, visual inspection 21 days after treatment
Procedure: as §11

Digitaria sanguinalis [12] = assay: as above; parameters: key: grade level by weed remaining vs blank control, e.g. 5 = 10.1-15%; conditions: 150 g a.i./ha, visual inspection 21 days after treatment
Procedure: as §11

Humulus scandens [13] = assay: as above; parameters: key: grade level by weed remaining vs blank control, e.g. 5 = 10.1-15%; conditions: 150 g a.i./ha, visual inspection 21 days after treatment
Procedure: as §11

green bristlegrass [14] = assay: as above; parameters: key: grade level by weed remaining vs blank control, e.g. 5 = 10.1-15%; conditions: 150 g a.i./ha, visual inspection 21 days after treatment
Procedure: as §11

Amaranthus retroflexus [15] = assay: Herbicidal activity test for indoor pre-emergence soil treatment; parameters: key: 1-9 levels; higher = more weed remaining vs blank control; conditions: 150 g a.i./ha, visual inspection 21 days after treatment
Procedure: as §1, §2, §3, §4, §5, §6, §7, §8, §9

Digitaria sanguinalis [16] = assay: as above; parameters: key: 1-9 levels; higher = more weed remaining vs blank control; conditions: 150 g a.i./ha, visual inspection 21 days after treatment
Procedure: as §1, §2, §3, §4, §5, §6, §7, §8, §9

Cyperaceae = assay: Post-emergence herbicidal activity test in a paddy field; parameters: key: level scale; higher level = more weed left vs blank control; conditions: 150 g a.i./ha (penoxsulam control 250 g(a.i.)/h)
Procedure: (§12) The post-emergence herbicidal activity test was performed in a paddy field with some of the N-benzylbenzamide-based compounds of general formula I or II with reference to the method of GB/T 17980.40-2000. […] Spray treatments were performed in the stage where 4 leaves to 5 leaves were grown for the rice seedlings which was about 1 month after the sowing. Representative compounds in the examples were used to prepare emulsifiable concentrates (10%), and spray treatments were performed with the concentrates in water at a dosage of 150 g(a.i.)/ha, and repeated 4 times for each treatment, and the area was 50 m^2. 25 g/L of penoxsulam suspension was used as a control agent and applied at a dosage of 250 g(a.i.)/h. The results were investigated by a value estimating survey method 15 days and 30 days after the treatments. The relative weed population quantities were estimated by comparing each agent treated area with an adjacent blank control area, and the results of which were investigated with the following grading standard method using the overall coverage of the weed population as an indicator.
as §2, §3, §4, §5, §6, §7, §8, §9

Broadleaf weed = assay: as above; parameters: key: level scale; higher level = more weed left vs blank control; conditions: 150 g a.i./ha (penoxsulam control 250 g(a.i.)/h)
Procedure: as §12, §2, §3, §4, §5, §6, §7, §8, §9

Gramineae = assay: as above; parameters: key: level scale; higher level = more weed left vs blank control; conditions: 150 g a.i./ha (penoxsulam control 250 g(a.i.)/h)
Procedure: as §12, §2, §3, §4, §5, §6, §7, §8, §9

COc1ncccc1C(=O)NCc1cccc(Cl)c1 [Compound A92]
Herbicidal Activity Humulus scandens (Humulus scandens [1]): 2 (equivalent to 0 to 2.5% of the weed in the blank control area) | Post-emergence weed control effect, Amaranthus retroflexus (Amaranthus retroflexus [2]): 1 | Post-emergence weed control effect, Convolvulus arvensis (Convolvulus arvensis): 1 | Post-emergence weed control effect, Solanum nigrum (Solanum nigrum): 2 (equivalent to 0 to 2.5% of the weed in the blank control area) | Post-emergence weed control effect, Acalypha australis (Acalypha australis): 2 (equivalent to 0 to 2.5% of the weed in the blank control area) | Post-emergence weed control effect, Goose grass (goosegrass): 1 | Post-emergence weed control effect, Barnyard grass (Barnyard grass [3]): 1 | Post-emergence weed control effect, Digitaria sanguinalis (Digitaria sanguinalis [4]): 2 (equivalent to 0 to 2.5% of the weed in the blank control area) | Post-emergence weed control effect, Portulaca oleracea (Portulaca oleracea): 1 | Post-emergence weed control effect, Chenopodium album (Chenopodium album): 1 | Post-emergence weed control effect, Nutgrass flatsedge (nutgrass flatsedge): 2 (equivalent to 0 to 2.5% of the weed in the blank control area) | Post-emergence weed control effect, Green bristlegrass (green bristlegrass [5]): 2 (equivalent to 0 to 2.5% of the weed in the blank control area) | Herbicidal Activity Piemarker (Piemarker [6]): 1 | Herbicidal Activity Barnyard grass (Barnyard grass [7]): 1 | Herbicidal Activity Green bristlegrass (green bristlegrass [8]): 1 | Herbicidal Activity Amaranthus retroflexus (Amaranthus retroflexus [9]): 1 | Herbicidal Activity Piemarker (Piemarker [10]): 1 | Herbicidal Activity Barnyard grass (Barnyard grass [11]): 1 | Herbicidal Activity Digitaria sanguinalis (Digitaria sanguinalis [12]): 1 | Herbicidal Activity Humulus scandens (Humulus scandens [13]): 1 | Herbicidal Activity Green bristlegrass (green bristlegrass [14]): 1 | Herbicidal Activity Amaranthus retroflexus (Amaranthus retroflexus [15]): 1 | Herbicidal Activity Digitaria sanguinalis (Digitaria sanguinalis [16]): 1 | Herbicidal activity 15 days after treatment Cyperaceae (Cyperaceae; 15 days after treatment): 1 | Herbicidal activity 30 days after treatment Cyperaceae (Cyperaceae; 30 days after treatment): 1 | Herbicidal activity 15 days after treatment Broadleaf weed (Broadleaf weed; 15 days after treatment): 1 | Herbicidal activity 30 days after treatment Broadleaf weed (Broadleaf weed; 30 days after treatment): 1 | Herbicidal activity 15 days after treatment Gramineae (Gramineae; 15 days after treatment): 2 (equivalent to 0 to 2.5% of the weed in the blank control area) | Herbicidal activity 30 days after treatment Gramineae (Gramineae; 30 days after treatment): 2 (equivalent to 0 to 2.5% of the weed in the blank control area)
